Nine compounds from patent US11077090B2, “Compounds and compositions and uses thereof” (Sunovion Pharmaceuticals Inc., priority 2016, dated 2021) can be followed below.

Usually minimal effective dose stands for the smallest amount tested that counted as effective.

One experiment relates to compound-treated mice. The experiment can be described thus: Neuropharmacological assay (SmartCube): behavioral activity signature and minimal effective dose. Type of experiment: in vivo. As to conditions: Mus musculus, ip, MED = dose having 50% or more total activity, read-out: Potency: minimal effective dose (MED). An excerpt: Neurosci. 2011 Sep. 9; 5:103 (doi: 10.3389/fnins.2011.00103) (“Roberds”). As reported in Roberds, because psychiatric diseases generally result from disorders of cell-cell communication or circuitry, intact systems are useful in detecting improvement in disease-relevant endpoints. These endpoints are typically behavioral in nature, often requiring human observation and interpretation. To facilitate testing of multiple compounds for behavioral effects relevant to psychiatric disease, PsychoGenics, Inc. (Tarrytown, N.Y., “PGI”) developed SmartCube™, an automated system in which behaviors of compound-treated mice are captured by digital video and analyzed with computer algorithms. (D. Brunner et al., Drug Discov. Today 2002, 7:S107-S112). PGI Analytical Systems uses data from SmartCube™ to compare the behavioral signature of a test compound to a database of behavioral signatures obtained using a large set of diverse reference compounds. (The composition of the database as well as validation of the method is further described in Roberds). In this way, the neuropharmacological effects of a test compound can be predicted by similarity to major classes of compounds, such as antipsychotics, anxiolytics and antidepressants.
The SmartCube™ system produces an activity signature indicating the probability that the activity of the test compound at the administered dose matches a given class of neuropharmacological agents. (See, e.g., Roberds, FIGS. 2 and 3). The test compound is simultaneously compared against multiple classes of agents; thus, a separate probability is generated for each behavioral effect measured (e.g., anxiolytic activity, analgesic activity, etc.). In the table below, these probabilities are reported for each behavioral effect measured as follows:
where LOQ is the limit of quantification.
Provided compounds were dissolved in a mixture of Pharmasolve™ (N-methyl-2-pyrrolidone), polyethylene glycol and propylene glycol, and were injected i.p. 15 min. before the behavioral test. For each compound, injections were administered at 3 different doses. For each behavioral effect measured, results for the most efficacious dose(s) are presented. In the table below, DP: anti-depressant; AX: anxiolytic; SD: sedative hypnotic; PS: anti-psychotic; MS: mood stabilizer; AD: ADHD; CE: cognitive enhancer; AG: analgesic; UN: uncharacterized CNS activity.
The potency of many of the compounds in the table was also determined in the SmartCube™ system. Test compounds were routinely examined at dose levels of 0.3, 1, 3, 10 and 30 mg per kg (mpk), although the dose range was increased or decreased if necessary to obtain a full dose response curve. A compound's minimal effective dose (MED) is a measure of the compounds potency. The MED was defined as the dose (in mpk) having 50% or more total activity in SmartCube.
In the case of `C[C@@H]1OCc2ccccc2[C@@H]1N.Cl` (relative stereo) [Example 72, cis-3-methylisochroman-4-amine hydrochloride], the minimal effective dose is 3 to 10 mg/kg.
On the same count and under the same terms, the value for `C[C@@H]1OCc2ccccc2[C@H]1N.Cl` (relative stereo) [Example 73, trans-3-methylisochroman-4-amine hydrochloride] was under 3 mg/kg; that for `Cc1ccc2c(c1)[C@H](N)[C@H](C)COC2.Cl` (relative stereo) [Example 74, cis-4,7-dimethyl-1,3,4,5-tetrahydrobenzo [c]oxepin-5-amine hydrochloride] was 10 to 30 mg/kg; that for `Cc1ccc2c(c1)[C@H](N)[C@@H](C)COC2.Cl` (relative stereo) [Example 75, trans-4,7-dimethyl-1,3,4,5-tetrahydrobenzo [c]oxepin-5-amine hydrochloride] was 10 to 30 mg/kg.
Same read-out and setting: under `Cc1ccc2c(c1)[C@H](N)[C@H](C)OC2.Cl` (relative stereo) [Example 76, cis-3,6-Dimethylisochroman-4-amine hydrochloride] stands under 3 mg/kg.
Same read-out and setting: under `Cc1ccc2c(c1)[C@@H](N)[C@H](C)OC2.Cl` (relative stereo) [Example 77, trans-3,6-Dimethylisochroman-4-amine hydrochloride] stands under 3 mg/kg; under `CC[C@H]1OCc2ccc(C)cc2[C@@H]1N.Cl` (relative stereo) [Example 99, trans-3-Ethyl-6-methylisochroman-4-amine hydrochloride], 3 to 10 mg/kg.
Consider `CC[C@@H]1OCc2ccc(C)cc2[C@@H]1N.Cl` (relative stereo) [Example 100, cis-3-Ethyl-6-methylisochroman-4-amine hydrochloride], for which the minimal effective dose was under 3 mg/kg.
On the same count and under the same terms, under `C[C@@H]1OC[C@H](N)c2ccccc21.Cl` (relative stereo) [Example 104, cis-1-Methylisochroman-4-amine hydrochloride] stands 3 to 10 mg/kg.

The same experiment, now with this note: i.p. 15 min before test, most efficacious dose(s).
With `C[C@@H]1OCc2ccccc2[C@@H]1N.Cl` (relative stereo) [Example 72, cis-3-methylisochroman-4-amine hydrochloride], the “AD: ADHD (probability of activity signature)” value (“AD: ADHD” for short) is recorded as “+ (LOQ ≤ + <5%)”, the “AG: analgesic (probability of activity signature)” value (shortened to “AG: analgesic”) was “++ (5% ≤ ++ <25%)”, the “AX: anxiolytic (probability of activity signature)” value (“AX: anxiolytic” for short) is “++ (5% ≤ ++ <25%)” and the “CE: cognitive enhancer (probability of activity signature)” value (“CE: cognitive enhancer” for short) is “++ (5% ≤ ++ <25%)”. The “DP: anti-depressant (probability of activity signature)” value (“DP: anti-depressant” for short) was “++ (5% ≤ ++ <25%)”, the “MS: mood stabilizer (probability of activity signature)” value (from here on “MS: mood stabilizer”) is reported as “+ (LOQ ≤ + <5%)”, the “PS: anti-psychotic (probability of activity signature)” value (from here on “PS: anti-psychotic”) is given as “++ (5% ≤ ++ <25%)” and the “SD: sedative hypnotic (probability of activity signature)” value (“SD: sedative hypnotic” for short) is on record as “++ (5% ≤ ++ <25%)”. The “UN: uncharacterized CNS activity (probability of activity signature)” value (“UN: uncharacterized CNS activity” below) is on record as “+++ (25% ≤ +++ <50%)”.
In the case of `C[C@@H]1OCc2ccccc2[C@H]1N.Cl` (relative stereo) [Example 73, trans-3-methylisochroman-4-amine hydrochloride], the “AD: ADHD” value is reported as “+ (LOQ ≤ + <5%)”, the “AG: analgesic” value is “++ (5% ≤ ++ <25%)”, the “AX: anxiolytic” value is listed as “+++ (25% ≤ +++ <50%)” and the “CE: cognitive enhancer” value is given as “++ (5% ≤ ++ <25%)”. The “DP: anti-depressant” value is on record as “++ (5% ≤ ++ <25%)”, the “MS: mood stabilizer” value is given as “+ (LOQ ≤ + <5%)”, the “PS: anti-psychotic” value was “++ (5% ≤ ++ <25%)” and the “SD: sedative hypnotic” value is “+ (LOQ ≤ + <5%)”. Moreover, the “UN: uncharacterized CNS activity” value was “+++ (25% ≤ +++ <50%)”.
On to `Cc1ccc2c(c1)[C@H](N)[C@H](C)COC2.Cl` (relative stereo) [Example 74, cis-4,7-dimethyl-1,3,4,5-tetrahydrobenzo [c]oxepin-5-amine hydrochloride], for which the “AD: ADHD” value was “+ (LOQ ≤ + <5%)”, the “AG: analgesic” value was “++ (5% ≤ ++ <25%)”, the “AX: anxiolytic” value is recorded as “++ (5% ≤ ++ <25%)” and the “CE: cognitive enhancer” value is given as “+ (LOQ ≤ + <5%)”. Further, the “DP: anti-depressant” value was “++ (5% ≤ ++ <25%)”, the “MS: mood stabilizer” value is listed as “+ (LOQ ≤ + <5%)”, the “PS: anti-psychotic” value is given as “+ (LOQ ≤ + <5%)” and the “SD: sedative hypnotic” value was “+ (LOQ ≤ + <5%)”. Moreover, the “UN: uncharacterized CNS activity” value is reported as “+++ (25% ≤ +++ <50%)”.
With `Cc1ccc2c(c1)[C@H](N)[C@@H](C)COC2.Cl` (relative stereo) [Example 75, trans-4,7-dimethyl-1,3,4,5-tetrahydrobenzo [c]oxepin-5-amine hydrochloride], the “AD: ADHD” value was “+ (LOQ ≤ + <5%)”, the “AG: analgesic” value is “++ (5% ≤ ++ <25%)”, the “AX: anxiolytic” value is “++ (5% ≤ ++ <25%)” and the “CE: cognitive enhancer” value is “++ (5% ≤ ++ <25%)”. For the same compound, the “DP: anti-depressant” value is recorded as “+ (LOQ ≤ + <5%)”, the “MS: mood stabilizer” value is “+ (LOQ ≤ + <5%)”, the “PS: anti-psychotic” value is on record as “++ (5% ≤ ++ <25%)” and the “SD: sedative hypnotic” value is given as “+ (LOQ ≤ + <5%)”. The “UN: uncharacterized CNS activity” value is listed as “+++ (25% ≤ +++ <50%)”.
On to `Cc1ccc2c(c1)[C@H](N)[C@H](C)OC2.Cl` (relative stereo) [Example 76, cis-3,6-Dimethylisochroman-4-amine hydrochloride], for which the “AD: ADHD” value is “+ (LOQ ≤ + <5%)”, the “AG: analgesic” value is reported as “++ (5% ≤ ++ <25%)”, the “AX: anxiolytic” value was “++ (5% ≤ ++ <25%)” and the “CE: cognitive enhancer” value is “++ (5% ≤ ++ <25%)”. Besides, the “DP: anti-depressant” value was “++ (5% ≤ ++ <25%)”, the “MS: mood stabilizer” value is reported as “+ (LOQ ≤ + <5%)”, the “PS: anti-psychotic” value is given as “++ (5% ≤ ++ <25%)” and the “SD: sedative hypnotic” value is “+ (LOQ ≤ + <5%)”. The “UN: uncharacterized CNS activity” value is given as “+++ (25% ≤ +++ <50%)”.
`Cc1ccc2c(c1)[C@@H](N)[C@H](C)OC2.Cl` (relative stereo) [Example 77, trans-3,6-Dimethylisochroman-4-amine hydrochloride]: the “AD: ADHD” value was “+ (LOQ ≤ + <5%)”, the “AG: analgesic” value is listed as “++ (5% ≤ ++ <25%)”, the “AX: anxiolytic” value was “++ (5% ≤ ++ <25%)” and the “CE: cognitive enhancer” value is “++ (5% ≤ ++ <25%)”. Further, the “DP: anti-depressant” value is on record as “++ (5% ≤ ++ <25%)”, the “MS: mood stabilizer” value was “+ (LOQ ≤ + <5%)”, the “PS: anti-psychotic” value was “++ (5% ≤ ++ <25%)” and the “SD: sedative hypnotic” value is “+ (LOQ ≤ + <5%)”. Besides, the “UN: uncharacterized CNS activity” value was “+++ (25% ≤ +++ <50%)”.
As to `CC[C@H]1OCc2ccc(C)cc2[C@@H]1N.Cl` (relative stereo) [Example 99, trans-3-Ethyl-6-methylisochroman-4-amine hydrochloride], the “AD: ADHD” value was “+ (LOQ ≤ + <5%)”, the “AG: analgesic” value is given as “++ (5% ≤ ++ <25%)”, the “AX: anxiolytic” value is “+++ (25% ≤ +++ <50%)” and the “CE: cognitive enhancer” value is on record as “++ (5% ≤ ++ <25%)”. For the same compound, the “DP: anti-depressant” value is given as “++ (5% ≤ ++ <25%)”, the “MS: mood stabilizer” value was “+ (LOQ ≤ + <5%)”, the “PS: anti-psychotic” value was “++ (5% ≤ ++ <25%)” and the “SD: sedative hypnotic” value is given as “+ (LOQ ≤ + <5%)”. Moreover, the “UN: uncharacterized CNS activity” value is given as “+++ (25% ≤ +++ <50%)”.
Consider `CC[C@@H]1OCc2ccc(C)cc2[C@@H]1N.Cl` (relative stereo) [Example 100, cis-3-Ethyl-6-methylisochroman-4-amine hydrochloride], for which the “AD: ADHD” value was “+ (LOQ ≤ + <5%)”, the “AG: analgesic” value is reported as “++ (5% ≤ ++ <25%)”, the “AX: anxiolytic” value is “++ (5% ≤ ++ <25%)” and the “CE: cognitive enhancer” value is reported as “++ (5% ≤ ++ <25%)”. Further, the “DP: anti-depressant” value is on record as “++ (5% ≤ ++ <25%)”, the “MS: mood stabilizer” value was “+ (LOQ ≤ + <5%)”, the “PS: anti-psychotic” value is reported as “+++ (25% ≤ +++ <50%)” and the “SD: sedative hypnotic” value is “++ (5% ≤ ++ <25%)”. The “UN: uncharacterized CNS activity” value was “+++ (25% ≤ +++ <50%)”.
As to `C[C@@H]1OC[C@H](N)c2ccccc21.Cl` (relative stereo) [Example 104, cis-1-Methylisochroman-4-amine hydrochloride], the “AD: ADHD” value was “+ (LOQ ≤ + <5%)”, the “AG: analgesic” value is listed as “++ (5% ≤ ++ <25%)”, the “AX: anxiolytic” value is on record as “++ (5% ≤ ++ <25%)” and the “CE: cognitive enhancer” value is “++ (5% ≤ ++ <25%)”. Further, the “DP: anti-depressant” value is “++ (5% ≤ ++ <25%)”, the “MS: mood stabilizer” value is “+ (LOQ ≤ + <5%)”, the “PS: anti-psychotic” value was “++ (5% ≤ ++ <25%)” and the “SD: sedative hypnotic” value is listed as “++ (5% ≤ ++ <25%)”. Moreover, the “UN: uncharacterized CNS activity” value was “+++ (25% ≤ +++ <50%)”.
